Laboratory results reported in patent publication US12667563B2, “Prophylactic or therapeutic agent for porphyria” (TANABE PHARMA CORPORATION, priority 2020, dated 2026).

What was measured:
Assay type in all cases: in vivo, human
[1] = tested on: patients with erythropoietic protoporphyria or X-linked porphyria; assay: Health-related QOL: PGIC (Patient Global Impression of Change) score in clinical trial; conditions: 7-point scale, 7 = remarkable improvement (placebo 2.9), P value <0.001
Method: Compound A was administered to adult male and female patients with erythropoietic protoporphyria or X-linked porphyria for 16 weeks in a randomized double-blind clinical trial. As a secondary endpoint for the clinical effect, the PGIC (Patient Global Impression of Change) score, which is a health-related QOL, of each patient at week 16 was recorded by the patients themselves, More specifically, each patient was provided with a questionnaire for scoring the degree of improvement of the overall physical and mental health conditions on a 7-point scale.
The PGIC scores at week 16 in the placebo-administration group, the 100-mg compound A-administration group, and the 300-mg compound A-administration group were 2.9, 6.4, and 6.6, respectively.

[2] = tested on: patients with erythropoietic protoporphyria or X-linked porphyria; assay: Time to occurrence of phototoxicity-related symptom in randomized double-blind clinical trial; conditions: for Least squares mean of the length of time (in minutes) before the first occurrence of a symptom in a day: week 16
Method: Compound A was administered to adult male and female patients with erythropoietic protoporphyria or X-linked porphyria for 16 weeks in a randomized double-blind clinical trial. As a primary endpoint for the clinical effect, the time to the first symptom due to exposure to light, including indirect sunlight as well as direct sunlight, during the period from 1 hour after sunrise to 1 hour before sunset was evaluated.
The baseline median of the erythrocyte protoporphyrin IX level was determined by measuring the protoporphyrin IX level in the fraction of erythrocytes in blood.
The median of the melanin density was determined h spectrophotometric measurement for the skin at the following six sites: the forehead, the left cheek, the inner side of the right upper arm, the inner side of the left forearm, the right side of the abdomen, and the left side of the hip.
The test in Example 2 was conducted in the Northern Hemisphere.

[3] = tested on: patients with erythropoietic protoporphyria or X-linked porphyria; assay: Number of pain events recorded in electronic diary by patients during 16-week evaluation period of clinical trial; conditions: for reduction of pain events relative to the placebo administration group: 16 weeks; for Incidence rate of pain: N 24, 16-week evaluation period (placebo 7.5)
Method: Compound A was administered to adult male and female patients with erythropoietic protoporphyria or X-linked porphyria for 16 weeks in a randomized double-blind clinical trial. As another endpoint for the clinical effect, the number of pain events during the evaluation period of 16 weeks was recorded in an electronic diary by the patients themselves.
The incidence rates of pain during the evaluation period in the placebo administration group, the 100-mg compound A-administration group, and the 300-mg compound A-administration group were 7.5, 3.3, and 3.5, respectively.

In the case of `COC[C@H]1CN(C(=O)[C@]2(F)CN(C3CCCC3)C[C@H]2c2ccc(OC)cc2)C[C@@H]1c1ccc(C(F)(F)F)cc1N1CCC(C(=O)O)CC1.O=P(O)(O)O` [Compound A, cocrystal containing 1-{2-[(3S,4R)-1-{[(3R,4R)-1-cyclopentyl-3-fluoro-4-(4-methoxyphenyl)pyrrolidin-3-yl]carbonyl}-4-(methoxymethyl)pyrrolidin-3-yl]-5-(trifluoromethyl)phenyl}piperidine-4-carboxylic acid and phosphoric acid], the “Least squares mean of the PGIC scores” value ([1]; 100 mg orally once daily, N 25, week 16) is reported as 6.4, the “Least squares mean of the PGIC scores” value ([1]; 300 mg orally once daily, N 24, week 16) is reported as 6.6 and the “Least squares mean of the length of time (in minutes) before the first occurrence of a symptom in a day” value (from here on “Least squares mean of the length of time”) ([2]; 100 mg (N = 15) vs placebo (N = 15), subgroup with initial dosing in fall or winter, P value 0.029) is reported as 52.8 min. For the same compound, the “Least squares mean of the length of time” value ([2]; 100 mg (N = 18) vs placebo (N = 20), subgroup with initial dosing in spring or summer, P value 0.073) was 54.4 min, the “Least squares mean of the length of time” value ([2]; 100 mg orally once daily (N = 33) vs placebo (N = 35), P value 0.008) was 53.8 min and the “least squares mean of the time (in minutes) to the first occurrence of the symptom in a day” value (shortened to “least squares mean of the time”) ([2]; 100 mg, patient group with baseline median erythrocyte protoporphyrin IX level not less than 1980.50 mcg/dL, P value 0.020) was 69.3 min. For the same compound, the “least squares mean of the time” value ([2]; 100 mg, patient group with median melanin density less than 3.0915, P value 0.499) was 23.2 min, the “least squares mean of the time” value ([2]; 100 mg, patient group with median melanin density not less than 3.0915, P value <0.001) was 85.0 min and the “Least squares mean of the length of time” value ([2]; 300 mg (N = 16) vs placebo (N = 15), subgroup with initial dosing in fall or winter, P value <0.001) was 95.8 min. For the same compound, the “Least squares mean of the length of time” value ([2]; 300 mg (N = 18) vs placebo (N = 20), subgroup with initial dosing in spring or summer, P value 0.168) was 42.2 min, the “Least squares mean of the length of time” value ([2]; 300 mg orally once daily (N = 34) vs placebo (N = 35), P value 0.003) was 62.5 min and the “least squares mean of the time” value ([2]; 300 mg, patient group with baseline median erythrocyte protoporphyrin IX level not less than 1980.50 mcg/dL, P value 0.003) was 82.6 min. For the same compound, the “least squares mean of the time” value ([2]; 300 mg, patient group with median melanin density less than 3.0915, P value 0.051) was 63.7 min, the “least squares mean of the time” value ([2]; 300 mg, patient group with median melanin density not less than 3.0915, P value 0.002) was 80.3 min and the “time to the first occurrence of the symptom in a day” value ([2]; patient group with baseline median erythrocyte protoporphyrin IX level less than 1980.50 mcg/dL) was “tended to be prolonged”. The “reduction of pain events relative to the placebo administration group” value ([3]; 100 mg orally once daily) was 60%, the “Incidence rate of pain” value ([3]; 100 mg orally once daily) was 3.3 and the “Incidence rate of pain, ratio to placebo” value ([3]; 100 mg orally once daily, P value 0.027) was 0.4. For the same compound, the “reduction of pain events relative to the placebo administration group” value ([3]; 300 mg orally once daily) was 50%, the “Incidence rate of pain” value ([3]; 300 mg orally once daily) was 3.5 and the “Incidence rate of pain, ratio to placebo” value ([3]; 300 mg orally once daily, P value 0.028) was 0.5.
